Results published in patent US7329646B2, “Derivatives of the insulinotropic peptide exendin-4 and methods of production thereof” (Shanghai Huayi Bio-Lab Co., Ltd., priority 2001, dated 2008).

Tests used:
Format in all cases: in vivo
[1] = test system: non-diabetic C57 BL/6J mice; experiment: Blood glucose after glucose challenge in non-diabetic C57 BL/6J mice (Example 3); details: overnight-fasted mice; 20% glucose (200 μl) i.p. with simultaneous s.c. peptide: GLP-1 1 μg, exendin-4 0.2 μg, derivative 0.2 μg; 0, 30, 60, 120 minutes; FIG. 2
Protocol: Experiments were conducted to determine the effect on the blood glucose levels of non-diabetic C57 BL/6J mice of the exendin-4 (Leu14, Lys20, Arg40) peptide derivative relative to GLP-1 and the wild-type exendin-4 peptide. Overnight-fasted C57 BL/6J mice weighing 20 g were injected with a 20% glucose solution (200 μl) intra-peritoneally and simultaneously subcutaneously injected with either a saline control, GLP-1 (1 μg), exendin-4 (0.2 μg), or exendin-4 (Leu14, Lys20, Arg40) (0.2 μg). Blood glucose levels were determined using standard glucose determination kits at 0, 30, 60, and 120 minutes post-injection.

db/db diabetic mice = experiment: Blood glucose after glucose challenge in db/db diabetic mice (Example 4); details: 2-hour-fasted db/db mice; 20% glucose (200 μl) i.p. with simultaneous s.c. GLP-1 4 μg, E4m 0.2 μg or Humalog 4 μg; 0-180 minutes; FIG. 3
Protocol: In order to extend the experimental results obtained in Example 3 with non-diabetic mice, experiments were also conducted to determine the effect on blood glucose levels of db/db diabetic mice of the exendin-4 (Leu14, Lys20, Arg40) peptide derivative relative to GLP-1 and Rapid Insulin.
Specifically, 2-hour-fasted db/db mice weighing 50 g were injected with a 20% glucose solution (200 μl) intra-peritoneally and simultaneously subcutaneously injected with either a saline control, GLP-1 (4 μg), exendin-4 (Leu14, Lys20, Arg40) (“E4m”)(0.2 μg), or the commercially available insulin, Humalog® (Eli Lilly and Company) (4 μg). Blood glucose levels were determined using standard glucose determination kits at 0, 30, 60, 120, and 180 minutes post-injection, and hypoglycemia (%) was calculated relative to the baseline (t=0) blood glucose level of animals receiving saline control.

C57 BL/6J mice = experiment: Long-term blood glucose buffering with second glucose challenge at 240 minutes in C57 BL/6J mice (Example 5); details: FIG. 4; for effect on rise in blood glucose levels after the initial glucose injection: overnight-fasted mice, 20% glucose (200 μl) i.p. with simultaneous s.c. GLP-1 1 μg or E4m 0.2 μg; for activity on blood glucose after second glucose challenge at 240 minutes after the first injection: peptide given only at first injection (GLP-1 1 μg, E4m 0.2 μg), glucose measured at 240, 270, 300 minutes
Protocol: In order to determine the long-term ability of the exendin-4 derivative exendin-4 (Leu14, Lys20, Arg40) to buffer blood glucose levels, experiments were performed in which blood glucose levels in the presence of this exendin-4 derivative were determined at various times after an initial glucose challenge at 0 minutes and then a second glucose challenge at 240 minutes.
Specifically, overnight-fasted C57 BL/6J mice weighing 20 g were injected with a 20% glucose solution (200 μl) intra-peritoneally and simultaneously subcutaneously injected with either a saline control, GLP-1 (1 μg), or exendin-4 (Leu14, Lys20, Arg40) (0.2 μg). Then, at 240 minutes after the initial injection a second injection of 20% glucose solution (200 μl) intra-peritoneally was performed. Blood glucose levels were determined using standard glucose determination kits at 0, 30, 60, 240, 270, and 300 minutes after the first injection.

Healthy C57 BL mice = experiment: C-peptide secretion in healthy C57 BL mice, C-peptide radioimmunoassay (Example 8); details: abdominal injection of 5 μg in 200 μl saline, data not shown
Protocol: In order to further investigate the insulinotropic properties of the exendin-4 derivative exendin-4 (Lys20, Arg40), experiments were conducted to measure the effect of administration of this compound on the production of C-peptide, which, as discussed previously, is produced in equal amounts as insulin by the cleavage of proinsulin. Healthy C57 BL mice were provided by Shanghai Laboratory Animal Center of Chinese Academy of Sciences. 40% glucose solution, 0.9% sodium chloride solution and exendin-4 (Lys20, Arg40) were used in the experiments. Insulin radioimmunoassay kits and C-peptide radioimmunoassay kits were purchased from Shanghai Institute of Biological Products Ministry of Health.
Healthy C57 BL mice were divided into two groups. 50 μl of blood sample was taken from plexus venosus of the eye using a scaled capillary, the inner wall of which was rinsed with 1 mg/mL heparin and was air-dried beforehand. Mice in two groups were abdominally injected with 200 μl normal saline alone, or with a similar amount of saline containing 5 μg of exendin-4 (Lys20, Arg40), respectively at t=0. […] The C-peptide concentration in each sample was determined by following the method described by the radioimmunoassay kit, and the stimulating effect of exendin-4 (Lys20, Arg40) on C-peptide secretion was determined.

NOD mice [2] = experiment: Insulin secretion in NOD mice, insulin radioimmunoassay (Example 7); details: abdominal injection of 5 μg in 200 μl saline, 5, 10, 20, 30 min, data not shown
Protocol: In order to determine whether the ability of the exendin-4 derivative exendin-4 (Lys20, Arg40) to decrease blood glucose in NOD mice is an insulinotropic effect, experiments were conducted to measure the effect of administration of this compound on insulin levels. In these experiments, NOD mice were provided by Shanghai Laboratory Animal Center of Chinese Academy of Sciences. 40% glucose solution, 0.9% sodium chloride solution, and exendin-4 (Lys20, Arg40) were used in the experiment. Insulin radioimmunoassay kits were purchased from Shanghai Institute of Biological Products Ministry of Health.
NOD mice were divided into two groups. 50 μl of blood sample was taken from the plexus venosus of the eye using a scaled capillary, the inner wall of which was rinsed with 1 mg/mL heparin and was air-dried beforehand. Mice in the two groups were abdominally injected with either 200 μl normal saline alone, or with a similar amount of saline containing 5 μg exendin-4 (Lys20, Arg40), respectively at t=0. Different blood samples were taken as described above at 5 min, 10 min, 20 min and 30 min. […] Insulin concentrations of different samples were determined by following the methods described in the radioimmunoassay kit, and the stimulating effect of exendin-4 (Lys20, Arg40) on insulin secretion was determined.

NOD mice [3] = experiment: Blood glucose after glucose challenge in NOD mice (Example 6); details: overnight-fasted NOD mice
Protocol: Experiments to determine the effects on blood glucose levels of the exendin-4 derivative exendin-4 (Lys20, Arg40) were conducted in NOD mice provided by the Shanghai Laboratory Animal Center of Chinese Academy of Sciences. 0.9% sodium chloride solution and exendin-4 (Lys20, Arg40) were used in the assay. Plasma glucose testing kits were purchased from Shanghai Institute of Biological Products Ministry of Health.
Overnight-fasted NOD mice were divided into two groups. Mice in the first group were abdominally injected with 200 μl of a solution containing 40% glucose and 1 μg of exendin-4 (Lys20, Arg40). Mice in the second (control) group […] with a glucose solution.
30 μl of blood sample was taken from retro-orbital zeinous sinus immediately using a scaled capillary which was treated beforehand with heparin, placed into 300 μl of normal saline and mixed with the saline. Erythrocytes were removed by centrifugation at 3,000 rpm, while blood serum was kept for glucose determination. Different blood samples were taken as described above at 30 min, 60 min and 120 min, and blood serum was separated. Glucose concentrations of three plasma samples were determined according to the method described in the testing kits, and the decreasing effect of exendin-4 (Lys20, Arg40) on blood glucose concentration was determined.

| Substance | effect on blood glucose levels after glucose challenge [1] | effect on blood glucose levels after glucose challenge (db/db diabetic mice) | effect on rise in blood glucose levels after the initial glucose injection (C57 BL/6J mice) | activity on blood glucose after second glucose challenge at 240 minutes after the first injection (C57 BL/6J mice) | stimulating effect on C-peptide secretion (Healthy C57 BL mice) | stimulating effect on insulin secretion (NOD mice [2]) | time after administration up to which dramatic fluctuations in glucose concentration are prevented (NOD mice [3]; 200 μl 40% glucose with 1 μg peptide, abdominal injection) | blood glucose concentration after glucose challenge (NOD mice [3]; abdominal injection of 200 μl 40% glucose with 1 μg peptide, 30, 60, 120 min, data not shown) |
| --- | --- | --- | --- | --- | --- | --- | --- | --- |
| Glucagon-like peptide-1 (HAEGTFTSDVSSYLEGQAAKEFIAWLVKGR; listed as Homo sapiens) [GLP-1, peptide hormone secreted by intestinal cells that enhances insulin secretion, reference compound] | acted to buffer changes in blood glucose levels | resulted in the buffering of changes in blood glucose levels | drastically reduced | GLP-1 activity is essentially abolished | – | – | – | – |
| Humalog®: commercially available insulin, Humalog® (Eli Lilly and Company) | – | resulted in the buffering of changes in blood glucose levels | – | – | – | – | – | – |
| exendin-4 (Leu14, Lys20, Arg40) | produced a response profile virtually identical to that seen with the wild-type exendin-4 sequence | resulted in the buffering of changes in blood glucose levels | essentially eliminated | activity at times of 240 or more minutes after first injection is preserved | – | – | – | – |
| exendin-4 (Lys20, Arg40) | – | – | – | – | significantly stimulates the secretion of C-peptide relative to the control | significantly stimulates insulin secretion | at least 2 hours | never showed a notable increase in blood glucose |
| exendin-4 [wild-type exendin-4] | acted to buffer changes in blood glucose levels | – | – | – | – | – | – | – |
